{"source": "patent US20260315477A1", "about": "“THERAPEUTIC APPROACH TO BLOCK TERMINAL EXHAUSTION OF T CELLS AND SYNERGIZETHE EFFICACY OF T CELL IMMUNOTHERAPIES” (priority 2023, published 2026)", "key": {"[1]": {"settings": "cited from earlier work"}, "H3K4me3": {"system": "H3K4me3", "settings": "myeloma cells; cited from earlier work"}, "[2]": {"system": "dysfunctional human CD8 T cells", "assay": "In vitro model of human CD8 T cell dysfunction (chronic TCR plus TGFβ1 stimulation, day 28): effector functions, polyfunctionality, memory programs", "assay_type": "cell-based", "settings": "for effector functions of human TEX cells: FIGS. 49A-49E"}, "myeloma cells": {"system": "myeloma cells", "settings": "cited from earlier work"}, "KDM5A and KDM5B": {"target": "KDM5A and KDM5B", "settings": "cited from earlier work"}, "[3]": {"system": "other Jumonji family members", "settings": "cited from earlier work"}, "TBX21 locus": {"system": "TBX21 locus", "assay": "DNA methylation at dysfunction-associated differentially methylated region, targeted Oxford Nanopore assay", "assay_type": "cell-based, human", "settings": "GSK467 with or without TGFBR1 inhibitor (Repsox)", "experimental": "To determine whether targeting H3K4 demethylation can reduce de novo DNA methylation programs at the effector function-related genes in human CD8 T cells, the changes in DNA methylation levels were assessed at the dysfunction-associated differentially methylated region in dysfunctional human CD8 T cells after GSK467 (KDM5A/B inhibitor) with or without TGFBR1 inhibitor (Repsox) treatment."}, "AML cells": {"system": "AML cells", "assay": "Tumor-killing activity of treated dysfunctional human CD8 T cells (coculture with AML cells, 18 hr)", "assay_type": "cell-based", "settings": "with TGFβ1 blockade (TGFBR1 blocker); 25 μM GSK467; days 14-28"}, "B16-F10 melanoma": {"system": "B16-F10 melanoma", "assay": "B16-F10 melanoma model", "assay_type": "in vivo, mouse", "settings": "5 mg/Kg, every 2 days i.p.", "source_text": "(§1) Targeting KDM5B in melanoma cells leads to enhanced tumor rejection by derepressing the expression of endogenous retroviral elements in tumor cells and reducing immune evasion of tumor cells. These findings provide a strong rationale for testing the in vivo efficacy of a selective KDM5A/B inhibitor as an adjunctive treatment to ICB therapy in ICB-refractory tumors. Discussed herein is whether the pharmacological inhibition of KDM5A/B recovers the responses of anti-tumor CD8 T cells to ICB treatment during solid tumors. Utilized herein are two tumor models known to be refractory to PD-1/PD-L1 blockade therapy, including orthotopic OVA-expressing PyMT breast adenocarcinoma and GP33-expressing B16-F10 melanoma in C57BL/6 animals. One week following the adoptive transfer of Thy1.1+TCR-transgenic CD8 T cells (OVA-specific OT-I or GP33-specific P14 cells) into tumor-bearing animals, mono- or combined therapy using KDM5A/Bi plus anti-PD-L 1 treatment was started (FIG. 25A-25B). Changes in tumor growth was tracked and measure the quantity, phenotype, proliferative potential, and functional capacity of adoptively transferred anti-tumor CD8 T cells measured within tumors and draining lymph nodes using spectral cytometry as described herein. […]"}, "[4]": {"system": "virus-specific exhausted CD8 T cells", "assay_type": "in vivo, mouse"}, "P14 CD8 T cells": {"system": "P14 CD8 T cells", "settings": "mouse, in vivo"}, "[5]": {"system": "tumor-specific CD8 T cells", "assay": "Tumor-infiltrating lymphocyte analysis in CT2A-gp33 glioma model", "assay_type": "in vivo, mouse", "settings": "combined with PD-L1 blockade", "experimental": "CT2A-gp33 Glioma Model: The efficacy of GSK467 therapy was tested using CT2A-gp33 glioma model with gp33-specific P14 CD8 T cells adoptively transferred on day 17-20. […] (FIGS. 38A-38C)"}, "KDM6": {"system": "KDM6", "settings": "cited from earlier work"}, "[6]": {"system": "B16-F10-GP33 melanoma cells", "assay": "In vitro tumor cell death of B16 melanoma cells", "assay_type": "cell-based", "settings": "24, 48 and 72 hours, different doses", "source_text": "Ordinary two-way ANOVA test, Dunnett's test. Error bars indicate SEM. N=4 replica of 2 independent experiments."}, "CT2A-gp33 glioma": {"system": "CT2A-gp33 glioma", "assay": "CT2A-gp33 glioma model", "assay_type": "in vivo, mouse", "settings": "combined with PD-L1 blockade; CD8-KO or Rag1-KO animals, P14 CD8 T cells transferred"}, "[7]": {"system": "PyMT-OVA breast adenocarcinoma", "assay": "Orthotopic breast cancer model (PyMT-OVA breast adenocarcinoma)", "assay_type": "in vivo, mouse", "settings": "combined with PD-L1 blockade, compared to PD-L1 blockade only", "source_text": "FIGS. 16A-16C show therapeutic blockade of KDM5A and KDM5B boosts the responses of anti-tumor CD8 T cells to ICB therapy.\nas §1"}, "[8]": {"system": "Tprog, Tcyto and Tterm CD8 T cells", "settings": "mouse, in vivo"}, "TEX cells": {"system": "TEX cells", "settings": "cited from earlier work"}, "other immune cells": {"system": "other immune cells", "settings": "cited from earlier work"}, "[9]": {"settings": "either GSK467 or C70, C70 25 μM, days 14-28"}}, "note": "Entries after “also recorded” stand apart in the source; their conditions may differ."}
{"smiles": "CCOC(=O)c1ccnc(CNCC(=O)N(CC)CCN(C)C)c1", "note": "[C70]", "values": [{"measurement": "cell penetration / permeability", "setting": "[1]", "result": "cell-permeable"}, {"measurement": "H3K4me3 levels", "setting": "H3K4me3", "result": "genome-wide elevation of H3K4me3 levels"}, {"measurement": "effector functions of human TEX cells", "setting": "[2]", "result": "enhances effector functions of human TEX cells"}, {"measurement": "polyfunctionality and memory expression programs", "setting": "[2]; [9]", "result": "significantly enhanced polyfunctionality and memory expression programs"}, {"measurement": "antiproliferative effect", "setting": "myeloma cells", "result": "antiproliferative effect"}, {"measurement": "KDM5A and KDM5B histone demethylase inhibition", "setting": "KDM5A and KDM5B", "result": "potent"}]}
{"smiles": "O=c1nc(Oc2cnn(Cc3ccccc3)c2)[nH]c2cnccc12", "note": "[GSK467]", "values": [{"measurement": "inhibitory effects toward other Jumonji family members", "setting": "[3]", "result": "no measurable inhibitory effects"}, {"measurement": "acquisition of de novo DNA methylation marks at the TBX21 locus", "setting": "TBX21 locus", "result": "significantly reduced the acquisition of de novo DNA methylation marks at the TBX21 locus"}, {"measurement": "cell penetration / permeability", "setting": "[1]", "result": "cell penetrant"}, {"measurement": "tumor-killing activity", "setting": "AML cells", "result": "augmented tumor-killing activity"}, {"measurement": "tumor control, combination", "setting": "B16-F10 melanoma; combination with PD-L1 blockade, days 12-20", "result": "further potentiated with combination PD-L1 blockade therapy"}, {"measurement": "tumor control", "setting": "B16-F10 melanoma; monotherapy, days 12-20 post-tumor inoculation", "result": "significant tumor control"}, {"measurement": "expansion of IFNG-secreting virus-specific CD8 T cells", "setting": "[4]; mouse, in vivo", "result": "significant expansion of both Tprog and Tcyto cells, as well as IFNG-secreting virus-specific CD8 T cells"}, {"measurement": "expansion of Tprog and Tcyto cells", "setting": "[4]; mouse, in vivo", "result": "significant expansion of both Tprog and Tcyto cells"}, {"measurement": "responses of virus-specific exhausted CD8 T cells to PD-L1 blockade", "setting": "[4]; mouse, in vivo", "result": "enhanced the responses of virus-specific TEX cells to PD-L1 blockade; also recorded: enhanced the responses of virus-specific exhausted CD8 T cells to PD-L1 blockade"}, {"measurement": "TEX cell responses to ICB during chronic LCMV infection", "setting": "[4]; with anti-PD-L1 (FIGS. 7A-7E)", "result": "enhances TEX responses to ICB"}, {"measurement": "proliferation response and long-lived memory function after ICB treatment", "setting": "P14 CD8 T cells", "result": "synergized their proliferation response and promote long-lived memory function after ICB treatment"}, {"measurement": "frequencies of IFNG-secreting tumor-specific CD8 T cells", "setting": "[5]", "result": "increased frequencies of IFNG-secreting tumor-specific CD8 T cells"}, {"measurement": "quantities of tumor-specific CD8 T cells", "setting": "[5]", "result": "significant increase in the quantities of tumor-specific CD8 T cells"}, {"measurement": "inhibitory effects toward KDM6", "setting": "KDM6", "result": "no measurable inhibitory effects"}, {"measurement": "effector functions of human TEX cells", "setting": "[2]", "result": "enhances effector functions of human TEX cells"}, {"measurement": "polyfunctionality and memory expression programs", "setting": "[2]; [9]", "result": "significantly enhanced polyfunctionality and memory expression programs"}, {"measurement": "cytolytic activity and effector functions of dysfunctional human T cells", "setting": "[2]; in vitro, direct effects on CD8 T cells", "result": "enhances the cytolytic activity and effector functions of dysfunctional human T cells"}, {"measurement": "effector and memory programs in dysfunctional human CD8 T cells", "setting": "[2]; late treatment", "result": "can recover effector and memory programs"}, {"measurement": "effector cytokine secretion and expression of memory-related transcription factors", "setting": "[2]; monotherapy, 25 μM GSK467, days 14-28", "result": "significantly restored effector cytokine secretion and expression of memory-related transcription factors"}, {"measurement": "polyfunctionality and memory expression programs", "setting": "[2]; with TGFβ1 blockade (TGFBR1 blocker), 25 μM GSK467, days 14-28", "result": "further potentiated the reactivation of polyfunctionality and memory expression programs"}, {"measurement": "tumor cell death, frequencies of dead B16 melanoma cells", "setting": "[6]", "result": "increases B16 melanoma tumor death in vitro"}, {"measurement": "Ki", "setting": "KDM5A and KDM5B; role: inhibitor, stated for KDM5A and KDM5B together", "result": 10, "unit": "nM"}, {"measurement": "IC50", "setting": "KDM5A and KDM5B; stated for KDM5A and KDM5B together", "result": 26, "unit": "nM"}, {"measurement": "tumor control", "setting": "CT2A-gp33 glioma", "result": "significant tumor control"}, {"measurement": "breast tumor control", "setting": "[7]", "result": "significant breast tumor control"}, {"measurement": "development of Tterm cells", "setting": "[8]", "result": "impeding the development of Tterm cells"}, {"measurement": "quantity of Tcyto cells", "setting": "[8]", "result": "increased the quantity of Tcyto cells"}]}
{"smiles": "Cc1cccc(-c2[nH]ncc2-c2ccc3ncccc3n2)n1", "note": "[TGFBR1 blocker]", "values": [{"measurement": "effector functions of chronically stimulated CD8 T cells", "setting": "[2]; TGFβ1 blockade alone, days 14-28", "result": "recovered effector functions of chronically stimulated CD8 T cells"}]}
{"smiles": "Nc1ncn([C@H]2C[C@H](O)[C@@H](CO)O2)c(=O)n1", "note": "[decitabine]", "values": [{"measurement": "response of TEX cells, with ICB therapy", "setting": "TEX cells", "result": "synergizes with ICB therapy to rescue the response of TEX cells"}, {"measurement": "cytotoxicity and adverse effects", "setting": "other immune cells", "result": "highly cytotoxic drug that has adverse effects on other immune cells"}, {"measurement": "selectivity", "setting": "other immune cells", "result": "non-selective"}]}
